Laboratory results: patent publication US20030050236A1, “Compounds that enhance tumor death” (The University of Chicago, priority 2000, published 2003)
Where a SMILES comes first, the peptide text is derived from it. [ ]: non-standard residue; d: D form. The star is where a group is joined. Palmitoyl = CCCCCCCCCCCCCCCC(=O)*; Dap = NC[C@H](N)C(=O)O

Experiments:
[1] = system: LA-N-5 human neuroblastoma cells; assay: Cell viability / cell death by MTT assay; type: cell-based
Protocol: Cells were plated in 24-well culture plates containing 500 μl media. After drug treatment, 50 μl MTT (5 mg/ml in PBS) was added and incubated for 20 min at 37° C. An aliquot of 500 μl of 10% sodium dodecyl sulfate in 0.01 N HCl was added. After incubating overnight, the absorbance at 570 nm was determined by spectrophotometry. Cell viability was calculated as percent cell survival by dividing absorbance [treatment-blank] by absorbance [control-blank], where treatment is the reading for the treated cells, control is for vehicle-treated cells and blank is for MTT added to the media without cells.
LA-N-5 human neuroblastoma cells were grown in DMEM supplemented with 10% fetal bovine serum and 1% gentamicin. […] Cell death was measured by the MTT method (Cho et al., 2000a; Cho et al., 2000b; Cho et al., 2000c).

[2] = system: caspase 3; assay: Caspase 3-like activity (DEVD-AFC) in LA-N-5 cells; type: cell-based, human; conditions: LY-294002 30 μM, C2 ceramide 25 μM
Protocol: Cells treated with drug or vehicle were harvested, washed with PBS and cell pellets lysed in 25 mM Hepes (pH 7.4), containing 2 mM dithiothreitol (DTT), 5 mM EDTA and […] digitonin. After centrifugation at 6,000 rpm for 10 min to remove cell debris and unruptured cells, an aliquot of the supernatant was added to a reaction buffer consisting of 25 mM Hepes (pH 7.4), 2 mM DTT, 5 mM EDTA, […] digitonin and 2.5 μg/ml DEVD-AFC. After 1 h incubation, the hydrolysis of substrate was quantified by fluorometry at excitation 400 mn and emission 505 nm. The blank reaction was done in the absence of cell lysate. Enzyme activity was expressed as the amount of fluorescence produced per mg protein/h.

[3] = system: LA-N-5 cells; assay: DNA fragmentation assay (Hoechst 33285); type: cell-based, human; conditions: LY-294002 30 μM, C2 ceramide 25 μM
Protocol: Quantification of DNA fragments was performed as described previously (Dawson et al., 1997). Briefly, cells were lysed in 5 mM Tris (pH 8.0) with 0.1% Triton X-100 and 20 mM EDTA and centrifuged at 20,000× g for 40 min at 4° C. For determination of DNA fragments lost in culture media, an aliquot of media was adjusted to a final concentration of 25 mM EDTA and centrifuged as described above. […] Fluorescence was detected by luminescent spectrometer using excitation 365 nm and emission 460 mn. DNA values were calculated using a standard curve obtained from the measurement of calf thymus DNA fluorescence.

[4] = system: Ras; assay: Ras activation: guanine nucleotide binding and membrane association; type: cell-based, human; conditions: C2 ceramide 30 μM
Protocol: (§1) Cells were harvested in a lysis buffer containing 10 mM Tris (pH 7.4), 1 mM EGTA, 1 mM EDTA, 1 mM DTT, 25 mM NaF, 2 mM MgCl2 and 10 μg/ml aprotinin, leupeptin and pepstatin. For subcellular fractionation, the postnuclear cell extract was centrifuged at 100,000× g for 45 min to obtain a cytosolic fraction and the pellet was washed and resuspended in a lysis buffer to obtain a membrane fraction. Whole cell lysate (for caspase-3 and pFLAG-PPT1) or fractionated proteins (for p21Ras and GAP-43) were resolved by 10%, 12% or 15% of SDS-PAGE for GAP-43, caspase-3 and pFLAG-PPT1, or Ras, respectively. For immunoblotting with anti-Akt antibodies, cells were lysed in RIPA buffer consisting of 50 mM Tris (pH 7.4), 150 MM NaCl, 1 mM EGTA, 1% Nonidet P-40, 0.25% sodium deoxycholate, 1 mM NaF and protease inhibitors. After lysis on ice for 1 h, cell debris was removed by centrifugation at 3,000 rpm for 5 min and an equal amount of postnuclear cell extract loaded on 8.5% SDS-PAGE. Resolved proteins were transferred to membrane overnight, blots incubated with a blocking solution for 1 h, incubated with appropriate primary and secondary antibodies and the signals detected by ECL.
Cells (10×10^6) were washed and incubated with 0.8 mCi/ml ^32Pi for 4 h in phosphate-free DMEM. […] Cell lysate was immunoprecipitated with monoclonal anti-Ras and bound nucleotides eluted with 1 mM EDTA/25 μM GDP and GTP were analyzed by TLC using 0.75 M KH2PO4 (pH 3.5). After autoradiography, the radioactive spots corresponding to GDP and GTP were counted.
p21^Ras is a key regulator in the signaling pathways involved in variety of events such as cell proliferation, transcription and apoptosis. […] Therefore, the subcellular localization of Ras protein was analyzed after C2-ceramide treatment. Cells were treated with C2 ceramide (30 μM), harvested at 10 min and 60 min and the membrane fraction (100,000× g pellet) analyzed by immunoblotting.

[5] = system: COS cells and embryonic neuron primary cultures
[6] = system: non-dividing cells
[7] = target: T1, PPT1 (Homo sapiens, UniProt P50897); assay: In vitro PPT1 activity assay, [14C]palmitoyl peptide substrates, cell extract; conditions: read-out: inhibition in an in vitro assay (PPT)
T1 sequence (P50897 28-306): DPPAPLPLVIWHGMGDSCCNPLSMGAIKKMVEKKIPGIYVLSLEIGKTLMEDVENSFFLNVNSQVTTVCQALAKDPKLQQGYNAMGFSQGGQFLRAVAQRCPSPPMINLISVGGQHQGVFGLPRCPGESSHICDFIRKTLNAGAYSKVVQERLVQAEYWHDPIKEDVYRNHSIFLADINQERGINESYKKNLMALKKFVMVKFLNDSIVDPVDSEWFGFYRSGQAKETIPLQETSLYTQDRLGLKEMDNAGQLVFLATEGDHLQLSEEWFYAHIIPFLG
Protocol: Incubations were performed for 20 min at 37° C. and reactions terminated by addition of 1 ml of chloroform/methanol/2N HCl (2:1:0.06, v/v). After the centrifugation, organic phase was analyzed by HPTLC using n-butanol/pyridine/acetic acid/water (45:30:9:36, v/v) and [14C] palmitate release was quantified.
The peptide sequence, AcGCVKIKK (a palmitoylation site in K-Ras), was modified by substituting the SH group of cysteine with NH2 to generate diamino propionic acid, which was then acylated with palmitate (AcG-palmitoyl diamino propionate-VKIKK). […] In another set of experiments, the unmodified peptide itself (AcGCVKIKK) was used as a control to exclude the possibility of a nonspecific effect of the sequence on PPT activity.
In brief, the cell sonicate was incubated in the assay mixture containing 50 mM sodium citrate (pH 4.0) and IRY([^4C]palmitoylated)CWLRR octapeptide (2,000-4,000 cpm) for 20 min at 37° C. For the pH profile of PPT1 activity, 50 mM sodium citrate (pH 5 or 6) or 50 mM Tris-HCl (pH 7.4) was used with other conditions remaining the same. After addition of 1 ml of chloroform/methanol/2N HCl (2:1:0.06, by volume) and centrifugation, the organic phase was dried, reconstituted sample analyzed by HPTLC using n-butanol/pyridine/acetic acid/water (45:30:9:36, by volume) and the radioactive spot corresponding to [^14C] palmitate was counted.
PPT1 activity was measured as described above. In brief, the cell sonicate was incubated in the assay mixture (50 mM sodium citrate (pH 4.0) for [^14C]palmitoylated [sequence] Po peptide substrate (3,000-4,000 cpm) or 50 mM Tris (pH 7.4) for [^14C]palmitoylated MLCCMRR GAP43 peptide substrate) for 20 min at 37° C. After organic extraction, samples were analyzed by HPTLC using n-butanol/pyridine/acetic acid/water (45:30:9:36, by volume) and the radioactive spot corresponding to [^14C] palmitate was counted.

[8] = system: Akt; assay: Akt phosphorylation immunoblot; type: cell-based, human; conditions: insulin 5 min; LY294002 pretreatment; vector-transfected cells
Protocol: as §1, with “After lysis on ice for 1 h, cell debris was removed by centrifugation at 3,000 rpm for 5 min and an equal amount of postnuclear cell extract loaded on 8.5% SDS-PAGE.” left out
To further investigate the downstream pathway by which PPT1 exerts protection against apoptosis, the activation of Akt was examined in control and PPT1 overexpressing cells. […] Therefore, the activation of Akt was analyzed by immunoblotting the cell extracts with an antibody specific to phosphorylated Akt (Ser473). […]

CCCCCCCCCCCCC/C=C/[C@@H](O)[C@H](CO)NC(C)=O [C2 ceramide]
death of cells (MTT) ([1]; 30 μM C2-ceramide alone, 6 h): about 10% | cell death (MTT assay) ([1]; LY-294002 30 μM, C2 ceramide 25 μM, 24 hrs): about 50% | activation of caspase 3 [2]: time-dependent activation of caspase 3 | DNA fragmentation [3]: increase in DNA fragmentation | GTP/(GDP+GTP) ratio increase over control ([4]; 10 min): 33% | membrane-association of Ras ([4]; 10 min and 60 min): time-dependent increase in membrane-association of Ras | GTP/(GDP+GTP) ratio increase over control ([4]; 60 min): 85%

CCCCCCCCCCCCCCCC(=O)NC[C@H](NC(=O)CNC(C)=O)C(=O)N[C@H](C(=O)N[C@@H](CCCCN)C(=O)N[C@H](C(=O)N[C@@H](CCCCN)C(=O)N[C@@H](CCCCN)C(N)=O)[C@@H](C)CC)C(C)C [DAP1, AcG-palmitoyl diamino propionate-VKIKK] (Ac-G[Dap](Palmitoyl)VKIKK-NH2)
effect on COS cells and embryonic neuron primary cultures [5]: much less effect | toxicity to non-dividing cells [6]: does not appear to be toxic | inhibition at 20 µM [7]: 85%

insulin: growth factor used as positive control for Akt activation
phosphorylation of Akt (Ser473) [8]: induced significant phosphorylation of Akt
